Drawing on patent US9493486B2, “Diazaspirocycloalkane and azaspirocycloalkane” (Hoffmann-La Roche Inc., priority 2012, dated 2016), this text covers IC50 for eleven molecules.

The structures appear in SMILES notation.

The experiment has as its target ATX (human His-tagged) (Homo sapiens (Human), UniProt Q13822). The experiment in a line: Human ATX enzyme inhibition assay (fluorescence quenching, MR121 substrate). It counts as biochemical. Conditions: 30 nM ATX, 1 μM MR121 substrate, 30° C. An excerpt:
Human ATX Enzyme Inhibition Assay
Assay working solutions were made as follows:
A word on the IC50: it is the concentration that gives 50% inhibition. Lower therefore signals inhibition by little substance. In turn, `O=C(OCc1cc(Cl)cc(C(F)(F)F)c1)N1CCC2(CC1)CN(C(=O)c1ccc3[nH]nnc3c1)C2` [Example 12.44, 3-chloro-5-(trifluoromethyl)benzyl 2-(1H-benzo[d][1,2,3]triazole-5-carbonyl)-2,7-diazaspiro[3.5]nonane-7-carboxylate] returned a half-inhibitory concentration (IC50) of 8 nM.

As for `O=C(OCc1ccc(OCC(F)(F)F)cc1F)N1CCC2(CC1)CN(C(=O)C1CCc3nn[nH]c3C1)C2` (centres unmarked) [Example 12.38, 2-fluoro-4-(2,2,2-trifluoroethoxy)benzyl 2-(4,5,6,7-tetrahydro-1H-benzo[d][1,2,3]triazole-6-carbonyl)-2,7-diazaspiro[3.5]nonane-7-carboxylate], half-maximal inhibition (IC50) was put at 2.5 nM.

`O=C(OCc1ccccc1)N1CCC2(CC1)CN(C(=O)c1ccc3[nH]nnc3c1)C2` [Example 1.01, benzyl 2-(1H-benzo[d][1,2,3]triazole-5-carbonyl)-2,7-diazaspiro[3.5]nonane-7-carboxylate] had an IC50 of 2400 nM.

Molecule `O=C(OCc1ccc(OC(F)(F)F)cc1F)N1CCC2(CC1)CN(C(=O)N1CCc3[nH]nnc3C1)C2` [Example 13.01, 2-fluoro-4-(trifluoromethoxy)benzyl 2-(4,5,6,7-tetrahydro-1H-[1,2,3]triazolo[4,5-c]pyridine-5-carbonyl)-2,7-diazaspiro[3.5]nonane-7-carboxylate] came in with an IC50 of 1 nM.

As to `O=C(OCc1ccc(C(F)(F)F)cc1)N1CCC2(CC1)CN(C(=O)c1ccc3[nH]c(=O)oc3c1)C2` [Example 12.22, 4-(trifluoromethyl)benzyl 2-(2-oxo-2,3-dihydrobenzo[d]oxazole-6-carbonyl)-2,7-diazaspiro[3.5]nonane-7-carboxylate], the IC50 was found to be 439 nM.

Molecule `O=C(OCc1cc(Cl)cc(Cl)c1)N1CCC2(C1)CN(C(=O)c1ccc3[nH]nnc3c1)C2` [Example 1.14, 3,5-dichlorobenzyl 2-(1H-benzo[d][1,2,3]triazole-5-carbonyl)-2,6-diazaspiro[3.4]octane-6-carboxylate] yielded an IC50 of 73.7 nM.

On to `O=C(OCc1ccc(OC(F)(F)F)cc1)N1CCC2(CC1)CN(C(=O)C1CCc3[nH]nnc3C1)C2` (centres unmarked) [Example 12.43, 4-(trifluoromethoxy)benzyl 2-(4,5,6,7-tetrahydro-1H-benzo[d][1,2,3]triazole-5-carbonyl)-2,7-diazaspiro[3.5]nonane-7-carboxylate], for which the IC50 worked out at 1 nM.

With `O=C(OCc1ccc(Cl)cc1)N1CCC2(CC1)CN(C(=O)c1ccc3[nH]nnc3c1)C2` [Example 1.02, 4-chlorobenzyl 2-(1H-benzo[d][1,2,3]triazole-5-carbonyl)-2,7-diazaspiro[3.5]nonane-7-carboxylate], the IC50 was 129 nM.

`CS(=O)(=O)c1cc(Cl)cc(COC(=O)N2CCC3(CC2)CN(C(=O)c2cccc(S(N)(=O)=O)c2)C3)c1` [Example 1.18, 3-chloro-5-(methylsulfonyl)benzyl 2-(3-sulfamoylbenzoyl)-2,7-diazaspiro[3.5]nonane-7-carboxylate] displayed an IC50 of 625 nM.

`O=C(OCc1cc(Cl)cc(Cl)c1)N1CCC2(CC1)CN(Cc1ccc3[nH]c(=O)oc3c1)C2` [Example 4, 3,5-Dichlorobenzyl 2-((2-oxo-2,3-dihydro-benzo[d]oxazol-6-yl)methyl)-2,7-diaza-spiro[3.5]nonane-7-carboxylate] came in with an IC50 of 546 nM.

`Cc1cc(OC(F)(F)F)ccc1COC(=O)N1CCC2(CC1)CN(C(=O)C1CCc3[nH]nnc3C1)C2` (centres unmarked) [Example 12.37, [2-methyl-4-(trifluoromethoxy)phenyl]methyl 2-(4,5,6,7-tetrahydro-1H-benzotriazole-5-carbonyl)-2,7-diazaspiro[3.5]nonane-7-carboxylate]: the 50% inhibitory concentration (IC50) came out at 1 nM.
